# From patent US8846654B2, “Therapeutic applications in the cardiovascular field of quinazolinedione derivatives” (Sanofi, priority 2009, dated 2014)
# Test system: Male C57B6 mice
# Test: Murine model of myocardial infarction resulting from an ischemia-reperfusion episode
# Format: in vivo
# Conditions: 3 mg/kg intravenously 5 minutes before reperfusion; 45 min coronary occlusion, 24 hours of reperfusion; compared with the vehicle
# Description: 3) Evaluation of the Compounds in Accordance with the Invention in a Murine Model of Myocardial Infarction Resulting from an Ischemia-Reperfusion Episode
# Male C57B6 mice (23-26 g) are anaesthetized (ketamine 1 g/kg+xylazine 0.02 g/kg, IP) and placed under respiratory assistance before being subjected to a thoracotomy targeted at exposing the heart. Cardiac ischemia is then induced by the transient ligation of the left coronary artery. After 45 minutes of coronary occlusion, the ligature is removed in order to make possible reperfusion of the region rendered ischemic. After closing the thorax and restoring the pleural cavity, the animals are placed in a revival cage.
# Test compounds Nos 11, 56, 233 and 309 are administered 5 minutes before reperfusion intravenously at a dose of 3 mg/kg and compared with the vehicle (7.5% Cremophor RH40+22.5% glycofurol in a physiological serum solution).
# After 24 hours of cardiac reperfusion, the animals are again anaesthetized (ketamine 1 g/kg+xylazine 0.02 g/kg, IP) before intravenously receiving sodium nitroprusside (1 mg/ml at 1 ml/min for 4 minutes) in order to dilate the coronary vasculature. The left coronary artery is religatured and a solution of Evans blue (3%, 200 to 300 μl) is injected by carotid retroperfusion in order to determine the region at ventricular risk. The heart is then removed and immersed in a saturated KCl solution in order to stop it in diastole. Transverse sections of 1 mm are produced, incubated in triphenyltetrazolium chloride (1% in PBS) at 37° C. for 2 minutes and then placed in formaldehyde (4%) overnight. The tetrazolium salt makes it possible to visualize the viable region within the region at risk. The surface area of the infarction with respect to the region at risk is determined by image analysis.
row,SMILES,"reduction of the size of the infarction, expressed with respect to the region at risk"
1,"COc1ccc(Cn2c(=O)c3cc(OC(CF)CF)ccc3n(C3CCN(C=O)CC3)c2=O)cc1OC [No. 11, 4-[3-(3,4-dimethoxybenzyl)-6-[2-fluoro-1-(fluoromethyl)ethoxy]-2,4-dioxo-3,4-dihydroquinazolin-1(2H)-yl]piperidine-1-carbaldehyde]",43%
2,"COc1cc(Cn2c(=O)c3cc(OC(CF)CF)ccc3n(C3CCN(C=O)CC3)c2=O)ccc1OC1CCCC1 [No. 56, 4-{3-[4-(cyclopentyloxy)-3-methoxybenzyl]-6-[2-fluoro-1-(fluoromethyl)ethoxy]-2,4-dioxo-3,4-dihydroquinazolin-1(2H)-yl}piperidine-1-carbaldehyde]",33%
3,"COc1ccc(Cn2c(=O)c3cc(OC(CF)CF)c(F)cc3n(C3CCN(C=O)CC3)c2=O)cc1OC [No. 233, 4-[3-(3,4-dimethoxybenzyl)-7-fluoro-6-[2-fluoro-1-(fluoromethyl)ethoxy]-2,4-dioxo-3,4-dihydroquinazolin-1(2H)-yl]piperidine-1-carbaldehyde]",40%
4,"COc1cc(Cn2c(=O)c3cc(OC(CF)CF)c(F)cc3n(C3CCN(C=O)CC3)c2=O)ccc1OCC1CC1 [No. 309, 4-{3-[4-(cyclopropylmethoxy)-3-methoxybenzyl]-7-fluoro-6-[2-fluoro-1-(fluoromethyl)ethoxy]-2,4-dioxo-3,4-dihydroquinazolin-1(2H)-yl}piperidine-1-carbaldehyde]",32%

# Test system: PDE8
# Test: PDE8 enzymatic assay equivalent to that described for PDE7
# Format: biochemical
# Conditions: not given
# Source text: 2) Measurement of the Inhibitory Activity of the Compounds in Accordance with the Invention with Regard to PDE8
row,IC50,SMILES
1,140 nM,"COc1ccc(Cn2c(=O)c3cc(OC(CF)CF)ccc3n(C3CCN(C=O)CC3)c2=O)cc1OC [No. 11, 4-[3-(3,4-dimethoxybenzyl)-6-[2-fluoro-1-(fluoromethyl)ethoxy]-2,4-dioxo-3,4-dihydroquinazolin-1(2H)-yl]piperidine-1-carbaldehyde]"
2,15 nM,"N#Cc1cc(Cn2c(=O)c3cc(OC(CF)CF)ccc3n(C3CCN(C=O)CC3)c2=O)ccc1-c1ccccc1 [No. 294, 4-({6-[2-fluoro-1-(fluoromethyl)ethoxy]-1-(1-formylpiperidin-4-yl)-2,4-dioxo-1,4-dihydroquinazolin-3(2H)-yl}methyl)biphenyl-2-carbonitrile]"
